# Results from patent US20150087673A1, “METHODS FOR USING AND BIOMARKERS FOR AMPK-ACTIVATING COMPOUNDS” (RIGEL PHARMACEUTICALS, INC., priority 2013, published 2015).
# Tested on: AMPK
# Assay: AMPK activation assay (enzyme-linked immunosorbent assay)
# Assay type: cell-based
# Outline: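 Compounds were tested for their capacity to activate the kinase using standard, commercially available kit reagents and procedures.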
row,Structure (SMILES),EC50
1,"N#Cc1ccc(CN2CCC(NC(=O)c3ccc(C(=O)N4CCC(Oc5ccc(NS(=O)(=O)C6CC6)cc5)CC4)nc3)CC2)cc1 [Compound 448, N-(1-(4-cyanobenzyl)piperidin-4-yl)-6-(4-(4-(cyclopropanesulfonamido)phenoxy)piperidine-1-carbonyl)nicotinamide]",1 to 5 µM
2,"COc1ccc(CN2CCC(NC(=O)c3ccc(C(=O)N4CCC(Oc5cccc(NC(C)=O)c5)CC4)nc3)CC2)cc1 [Compound 412, 6-(4-(3-acetamidophenoxy)piperidine-1-carbonyl)-N-(1-(4-methoxybenzyl)piperidin-4-yl)nicotinamide]",1 to 5 µM
3,"N#Cc1ccc(CN2CCC(NC(=O)c3ccc(C(=O)Nc4ccn(Cc5ccc(C#N)cc5)n4)cn3)CC2)cc1 [Compound 38, N^5-(1-(4-cyanobenzyl)-1H-pyrazol-3-yl)-N^2-(1-(4-cyanobenzyl)piperidin-4-yl)pyridine-2,5-dicarboxamide]",0.5 to 1 µM
4,"N#Cc1ccc(CN2CCC(NC(=O)c3ccc(NC4CCN(c5ccc(Cl)cc5)CC4)cn3)CC2)cc1 [Compound 139, 5-(1-(4-chlorophenyl)piperidin-4-ylamino)-N-(1-(4-cyanobenzyl)piperidin-4-yl)picolinamide]",< 0.5 µM
5,"COc1ccc(OC2CCN(C(=O)c3ccc(C(=O)NC4CCN(Cc5ccc(C#N)cc5)CC4)cn3)CC2)c(NC(=O)CCOCCOCCOCCOCCNC(=O)CCCC[C@@H]2SC[C@@H]3NC(=O)N[C@@H]32)c1 [Compound 394, N-(1-(4-cyanobenzyl)piperidin-4-yl)-6-(4-(4-methoxy-2-(17-oxo-21-((3aS,4S,6aR)-2-oxohexahydro-1H-thieno[3,4-d]imidazol-4-yl)-4,7,10,13-tetraoxa-16-azahenicosanamido)phenoxy)piperidine-1-carbonyl)nicotinamide]",> 10 µM
6,"COc1ccc(CC2CCN(C(=O)c3ccc(C(=O)NC4CCN(Cc5ccc(C#N)cc5)CC4)nc3)CC2)cc1F [Compound 146, N-(1-(4-cyanobenzyl)piperidin-4-yl)-5-(4-(3-fluoro-4-methoxybenzyl)piperidine-1-carbonyl)picolinamide]",< 0.5 µM
7,"N#Cc1ccc(OC2CCN(C(=O)c3ccc(C(=O)NC4CCN(Cc5ccc(F)cc5)CC4)nc3)CC2)cc1 [Compound 200, 5-(4-(4-cyanophenoxy)piperidine-1-carbonyl)-N-(1-(4-fluorobenzyl)piperidin-4-yl)picolinamide]",< 0.5 µM
8,"N#Cc1ccc(CN2CCC(NC(=O)c3ccc(N4CCN(Cc5ccccc5)CC4)cn3)CC2)cc1 [Compound 110, 5-(4-benzylpiperazin-1-yl)-N-(1-(4-cyanobenzyl)piperidin-4-yl)picolinamide]",1 to 5 µM
9,"N#Cc1ccc(CN2CCC(NC(=O)c3ccc(C(=O)N4CCC(Oc5ccc(C(=O)C6CC6)cc5)CC4)nc3)CC2)cc1 [Compound 456, N-(1-(4-cyanobenzyl)piperidin-4-yl)-6-(4-(4-(cyclopropanecarbonyl)phenoxy)piperidine-1-carbonyl)nicotinamide]",< 0.5 µM
10,"O=C(NC1CCN(Cc2ccc(F)cc2)CC1)c1ccc(C(=O)N2CCC(C(=O)c3ccc(-n4cccn4)cc3)CC2)nc1 [Compound 392, 6-(4-(4-(1H-pyrazol-1-yl)benzoyl)piperidine-1-carbonyl)-N-(1-(4-fluorobenzyl)piperidin-4-yl)nicotinamide]",< 0.5 µM

# Results, then the compound that gave them:
row,EC50,Structure (SMILES)
1,< 0.5 µM,"N#Cc1ccc(CN2CCC(NC(=O)c3ccc(N4CCC(Oc5ccc(C(F)(F)F)cc5)CC4)cn3)CC2)cc1 [Compound 301, N-(1-(4-cyanobenzyl)piperidin-4-yl)-5-(4-(4-(trifluoromethyl)phenoxy)piperidin-1-yl)picolinamide]"
2,< 0.5 µM,"COc1ccc(C(=O)C2CCN(C(=O)c3ccc(C(=O)Nc4ccc(Oc5ccc(F)cc5)nc4)cn3)CC2)cc1 [Compound 325, N-(6-(4-fluorophenoxy)pyridin-3-yl)-6-(4-(4-methoxybenzoyl)piperidine-1-carbonyl)nicotinamide]"
3,< 0.5 µM,"N#Cc1ccc(O[C@H]2CC[C@@H](NC(=O)c3ccc(C(=O)N4CCC(Oc5cccc(NC(=O)C6CC6)c5)CC4)nc3)CC2)cc1 [Compound 434, N-((cis)-4-(4-cyanophenoxy)cyclohexyl)-6-(4-(3-(cyclopropanecarboxamido)phenoxy)piperidine-1-carbonyl)nicotinamide]"
4,< 0.5 µM,"N#Cc1ccc(CN2CCC(NC(=O)c3ccc(NC4CCN(c5ccccc5)CC4)cn3)CC2)cc1 [Compound 126, N-(1-(4-cyanobenzyl)piperidin-4-yl)-5-(1-phenylpiperidin-4-ylamino)picolinamide]"
5,< 0.5 µM,"Cc1nc(Oc2ccc(C#N)cc2)ccc1NC(=O)c1ccc(C(=O)N2CCC(C(=O)c3ccc(F)cc3F)CC2)nc1 [Compound 479, N-(6-(4-cyanophenoxy)-2-methylpyridin-3-yl)-6-(4-(2,4-difluorobenzoyl)piperidine-1-carbonyl)nicotinamide]"
6,< 0.5 µM,"CN1CCN(c2ccc(C(=O)C3CCN(C(=O)c4ccc(C(=O)NC5CCN(Cc6ccc(C#N)cc6)CC5)nc4)CC3)cc2)CC1 [Compound 380, N-(1-(4-cyanobenzyl)piperidin-4-yl)-5-(4-(4-(4-methylpiperazin-1-yl)benzoyl)piperidine-1-carbonyl)picolinamide]"
7,< 0.5 µM,"N#Cc1ccc(O[C@H]2CC[C@@H](NC(=O)c3ccc(C(=O)N4CCC(Oc5ccc(C(F)(F)F)cc5)CC4)cn3)CC2)cc1 [Compound 190, N-((cis)-4-(4-cyanophenoxy)cyclohexyl)-5-(4-(4-(trifluoromethyl)phenoxy)piperidine-1-carbonyl)picolinamide]"
8,< 0.5 µM,"N#Cc1ccc(Oc2ccc(NC(=O)c3ccc(C(=O)N4CCC(C(=O)c5ccc(F)cc5F)CC4)nc3)cn2)cc1 [Compound 463, N-(6-(4-cyanophenoxy)pyridin-3-yl)-6-(4-(2,4-difluorobenzoyl)piperidine-1-carbonyl)nicotinamide]"
9,< 0.5 µM,"COc1ccc(C(=O)C2CCN(C(=O)c3ccc(C(=O)NCCOc4ccc(F)cc4)nc3)CC2)cc1 [Compound 305, N-(2-(4-fluorophenoxy)ethyl)-5-(4-(4-methoxybenzoyl)piperidine-1-carbonyl)picolinamide]"
10,< 0.5 µM,"O=C(NC1CCN(Cc2ccc(N3CCCC3)cc2)CC1)c1ccc(C(=O)N2CCC(C(=O)c3ccc(N4CCCC4)cc3)CC2)nc1 [Compound 444, 6-(4-(4-(pyrrolidin-1-yl)benzoyl)piperidine-1-carbonyl)-N-(1-(4-(pyrrolidin-1-yl)benzyl)piperidin-4-yl)nicotinamide]"
11,< 0.5 µM,"COc1cccc(CC2CCN(C(=O)c3ccc(C(=O)NC4CCN(Cc5ccc(C#N)cc5)CC4)nc3)CC2)c1 [Compound 147, N-(1-(4-cyanobenzyl)piperidin-4-yl)-5-(4-(3-methoxybenzyl)piperidine-1-carbonyl)picolinamide]"
12,< 0.5 µM,"N#Cc1ccc(Oc2ccc(NC(=O)c3ccc(C(=O)N4CCC(C(=O)c5ccc(F)cc5F)CC4)nc3)nc2)cc1 [Compound 469, N-(5-(4-cyanophenoxy)pyridin-2-yl)-6-(4-(2,4-difluorobenzoyl)piperidine-1-carbonyl)nicotinamide]"
13,< 0.5 µM,"O=C(NC1CCN(Cc2cc(F)cc(F)c2)CC1)c1ccc(C(=O)N2CCC(C(=O)c3ccc(F)cc3)CC2)cn1 [Compound 288, N-(1-(3,5-difluorobenzyl)piperidin-4-yl)-5-(4-(4-fluorobenzoyl)piperidine-1-carbonyl)picolinamide]"
